Earlier results on one molecule are cited in PubChem BioAssay AID1259409 (Chemical Carcinogenesis Research Information System (CCRIS), 2018).

For the data set, the system named is rodent chemically induced tumor inhibition, incidence and multiplicity. Description: CCRIS tumor inhibitor studies. Particulars: Route [Inhibitor]: ORAL. The text has this:
The CCRIS database contains chemical records with carcinogenicity, mutagenicity, tumor promotion, and tumor inhibition test results. It was developed by the National Cancer Institute (NCI). Data are derived from studies cited in primary journals, current awareness tools, NCI reports, and other sources. Test results have been reviewed by experts in carcinogenesis and mutagenesis.
CCRIS provides historical information from the years 1985 - 2011. It is no longer updated.
This is an archive assay for CCRIS tumor inhibitor studies.

As for `S=C=NCCc1ccccc1`, the “tumour outcome (control, treated, inhibition, significance)” value by setting is: (Carcinogen: N-NITROSOBIS(2-OXOPROPYL)AMINE [60599-38-4], Dose [Inhibitor]: 3 UMOL IN DIET FOR 49 WK BEGINNING 2 WK POST LAST CARCINOGEN DOSE (STUDY DURATION: 52 WK), Species: HAMSTER, Strain/Sex: SYRIAN/FEMALE, Target Tissue: Type of Lesion: LUNG: ADENOCARCINOMA, Dose [Carcinogen]: 20 MG/KG BW 1X/WK FOR 2 WK (STUDY DURATION: 52 WK), Promoter: NONE) 14/25 (56.0%), 12/28 (42.9%), 23%, not significant; (Carcinogen: N-NITROSOBIS(2-OXOPROPYL)AMINE [60599-38-4], Dose [Inhibitor]: 3 UMOL IN DIET FOR 49 WK BEGINNING 2 WK POST LAST CARCINOGEN DOSE (STUDY DURATION: 52 WK), Species: HAMSTER, Strain/Sex: SYRIAN/FEMALE, Target Tissue: Type of Lesion: LUNG: ADENOMA, Dose [Carcinogen]: 20 MG/KG BW 1X/WK FOR 2 WK (STUDY DURATION: 52 WK), Promoter: NONE) 20/25 (88.0%), 26/28 (92.9%), -6%, not significant; (Carcinogen: N-NITROSOBIS(2-OXOPROPYL)AMINE [60599-38-4], Dose [Inhibitor]: 3 UMOL IN DIET FOR 49 WK BEGINNING 2 WK POST LAST CARCINOGEN DOSE (STUDY DURATION: 52 WK), Species: HAMSTER, Strain/Sex: SYRIAN/FEMALE, Target Tissue: Type of Lesion: PANCREAS: ADENOCARCINOMA, Dose [Carcinogen]: 20 MG/KG BW 1X/WK FOR 2 WK (STUDY DURATION: 52 WK), Promoter: NONE) 20/25 (80.0%), 22/28 (78.6%), 2%, not significant; (Carcinogen: N-NITROSOBIS(2-OXOPROPYL)AMINE [60599-38-4], Dose [Inhibitor]: 6 UMOL IN DIET FOR 49 WK BEGINNING 2 WK POST LAST CARCINOGEN DOSE (STUDY DURATION: 52 WK), Species: HAMSTER, Strain/Sex: SYRIAN/FEMALE, Target Tissue: Type of Lesion: LIVER: HEPATOCELLULAR ADENOMA, Dose [Carcinogen]: 20 MG/KG BW 1X/WK FOR 2 WK (STUDY DURATION: 52 WK), Promoter: NONE) 18/25 (72.0%), 16/28 (57.1%), 21%, not significant; (Carcinogen: N-NITROSOBIS(2-OXOPROPYL)AMINE [60599-38-4], Dose [Inhibitor]: 6 UMOL IN DIET FOR 49 WK BEGINNING 2 WK POST LAST CARCINOGEN DOSE (STUDY DURATION: 52 WK), Species: HAMSTER, Strain/Sex: SYRIAN/FEMALE, Target Tissue: Type of Lesion: LUNG: ADENOCARCINOMA, Dose [Carcinogen]: 20 MG/KG BW 1X/WK FOR 2 WK (STUDY DURATION: 52 WK), Promoter: NONE) 14/25 (56.0%), 11/28 (39.3%), 30%, not significant; (Carcinogen: N-NITROSOBIS(2-OXOPROPYL)AMINE [60599-38-4], Dose [Inhibitor]: 6 UMOL IN DIET FOR 49 WK BEGINNING 2 WK POST LAST CARCINOGEN DOSE (STUDY DURATION: 52 WK), Species: HAMSTER, Strain/Sex: SYRIAN/FEMALE, Target Tissue: Type of Lesion: LUNG: ADENOMA, Dose [Carcinogen]: 20 MG/KG BW 1X/WK FOR 2 WK (STUDY DURATION: 52 WK), Promoter: NONE) 20/25 (88.0%), 24/28 (85.7%), 3%, not significant. The “tumour outcome (control, treated, inhibition, significance)” value was 20/25 (80.0%), 25/28 (89.3%), -12%, not significant (Carcinogen: N-NITROSOBIS(2-OXOPROPYL)AMINE [60599-38-4], Dose [Inhibitor]: 6 UMOL IN DIET FOR 49 WK BEGINNING 2 WK POST LAST CARCINOGEN DOSE (STUDY DURATION: 52 WK), Species: HAMSTER, Strain/Sex: SYRIAN/FEMALE, Target Tissue: Type of Lesion: PANCREAS: ADENOCARCINOMA, Dose [Carcinogen]: 20 MG/KG BW 1X/WK FOR 2 WK (STUDY DURATION: 52 WK), Promoter: NONE); 100%, 100%, 0%, not significant (Carcinogen: N-NITROSOMETHYLBENZYLAMINE, 937-40-6, Dose [Inhibitor]: 0, 0.325 UMOL/G OF DIET FOR 25 WK BEGINNING 2 WK PRIOR TO CARCINOGEN TREATMENT (STUDY DURATION: 25 WK), Species: RAT, Strain/Sex: F344/MALE, Target Tissue: Type of Lesion: ESOPHAGUS: TUMORS, Dose [Carcinogen]: 0.5 MG/KG 1/WK FOR 15 WK, Promoter: NONE USED); 100%, 57%, 43%, not significant (Carcinogen: N-NITROSOMETHYLBENZYLAMINE, 937-40-6, Dose [Inhibitor]: 0, 0.4 UMOL/G IN DIET FOR 25 WK BEGINNING 2 WK PRIOR TO CARCINOGEN TREATMENT (STUDY DURATION: 25 WK), Species: RAT, Strain/Sex: F344/MALE, Target Tissue: Type of Lesion: ESOPHAGUS: TUMOR, Dose [Carcinogen]: 0.5 MG/KG BW IN 20% DMSO 1/WK FOR 15 WK, Promoter: NONE USED); 100%, 100%, 0%, not significant (Carcinogen: N-NITROSOMETHYLBENZYLAMINE, 937-40-6, Dose [Inhibitor]: 0, 0.75 UMOL/G OF DIET FOR 25 WK BEGINNING 2 WK PRIOR TO CARCINOGEN TREATMENT (STUDY DURATION: 25 WK), Species: RAT, Strain/Sex: F344/MALE, Target Tissue: Type of Lesion: ESOPHAGUS: TUMORS, Dose [Carcinogen]: 0.5 MG/KG 1/WK FOR 15 WK, Promoter: NONE USED); 100%, 40%, 60%, p<0.05 (Carcinogen: N-NITROSOMETHYLBENZYLAMINE, 937-40-6, Dose [Inhibitor]: 0, 1 UMOL/G IN DIET FOR 25 WK BEGINNING 2 WK PRIOR TO CARCINOGEN TREATMENT (STUDY DURATION: 25 WK), Species: RAT, Strain/Sex: F344/MALE, Target Tissue: Type of Lesion: ESOPHAGUS: TUMOR, Dose [Carcinogen]: 0.5 MG/KG BW IN 20% DMSO 1/WK FOR 15 WK, Promoter: NONE USED); 100%, 60%, 40%, p<0.01 (Carcinogen: N-NITROSOMETHYLBENZYLAMINE, 937-40-6, Dose [Inhibitor]: 0, 1.5 UMOL/G OF DIET FOR 25 WK BEGINNING 2 WK PRIOR TO CARCINOGEN TREATMENT (STUDY DURATION: 25 WK), Species: RAT, Strain/Sex: F344/MALE, Target Tissue: Type of Lesion: ESOPHAGUS: TUMORS, Dose [Carcinogen]: 0.5 MG/KG 1/WK FOR 15 WK, Promoter: NONE USED). The “tumour outcome (control, treated, inhibition, significance)” value is 100%, 7%, 93%, p<0.05 (Carcinogen: N-NITROSOMETHYLBENZYLAMINE, 937-40-6, Dose [Inhibitor]: 0, 2.5 UMOL/G IN DIET FOR 25 WK BEGINNING 2 WK PRIOR TO CARCINOGEN TREATMENT (STUDY DURATION: 25 WK), Species: RAT, Strain/Sex: F344/MALE, Target Tissue: Type of Lesion: ESOPHAGUS: TUMOR, Dose [Carcinogen]: 0.5 MG/KG BW IN 20% DMSO 1/WK FOR 15 WK, Promoter: NONE USED); 100%, 0%, 100%, p<0.01 (Carcinogen: N-NITROSOMETHYLBENZYLAMINE, 937-40-6, Dose [Inhibitor]: 0, 3 UMOL/G OF DIET FOR 25 WK BEGINNING 2 WK PRIOR TO CARCINOGEN TREATMENT (STUDY DURATION: 25 WK), Species: RAT, Strain/Sex: F344/MALE, Target Tissue: Type of Lesion: ESOPHAGUS: TUMORS, Dose [Carcinogen]: 0.5 MG/KG 1/WK FOR 15 WK, Promoter: NONE USED); 15/15 (100%), 14/15 (93%), 7%, not significant (Carcinogen: N-NITROSOMETHYLBENZYLAMINE, 937-40-6, Dose [Inhibitor]: 0, 500 PPM IN DIET FOR DURATION OF STUDY BEGINNING 1 WK POST CARCINOGEN TREATMENT (STUDY DURATION: 25 WK), Species: RAT, Strain/Sex: F344/MALE, Target Tissue: Type of Lesion: ESOPHAGUS: TUMOR, Dose [Carcinogen]: 1 MG/KG 3/WK FOR 5 WK, Promoter: NONE USED); 15/15 (100%), 7/15 (47%), 53%, p<0.01 (Carcinogen: N-NITROSOMETHYLBENZYLAMINE, 937-40-6, Dose [Inhibitor]: 0, 500 PPM IN DIET FOR DURATION OF STUDY BEGINNING 2 WK PRIOR TO CARCINOGEN TREATMENT (STUDY DURATION: 25 WK), Species: RAT, Strain/Sex: F344/MALE, Target Tissue: Type of Lesion: ESOPHAGUS: TUMOR, Dose [Carcinogen]: 1 MG/KG 3/WK FOR 5 WK, Promoter: NONE USED).
